From patent publication US6482805B2 (Parker Hughes Institute, priority 1998, dated 2002) come the findings set out here.

One may read the EC50 as the concentration needed to bring the measured effect to its halfway point. Broadly, the IC50 is the midpoint of a concentration-inhibition curve.

The test system of one assay is human sperm. As to the kind of experiment: Sperm motility assay by CASA (Example 1). The conditions noted are these: for EC50: read-out: EC50, sperm motility. Type of assay: cell-based. How it is done: All donor specimens were obtained after informed consent and in compliance with the guidelines of the Wayne Hughes Institute Institutional Review Board. Motile sperm (≧10×10^6/ml), were suspended in 0.5 ml of Biggers, Whitten, and Whittingam's medium (BWW) containing 25 mM HEPES (Irvine Scientific, Santa Ana, Calif.), and 0.3% bovine serum albumin (BSA; Fraction V, Sigma Chemical Co, St. Louis, Mo.) in the presence and absence of serial two-fold dilutions of test substance (300 μM to 4.6 μm) in 1% DMSO. The stock solutions of synthetic WHI compounds were prepared in DMSO (10 mg/ml) and diluted in DMSO to yield the desired concentrations. Corresponding volume of DMSO (1%) was added to control tubes. N-9 was diluted in BWW-0.3% BSA (pH 7.4) to yield the desired concentrations (4.6 to 300 μM). After 3 hours of incubation at 37° C., the percentage of motile sperm was evaluated by computer-assisted sperm analysis (CASA) as described [L. J. Burkman, Fertil. Steril. […] The percent motilities were compared with sham-treated control suspensions of motile sperm. […] Non-linear regression analyses were used to determine the EC50 values from the concentration effect curves using GraphPad PRISM software (San Diego, Calif.).
For evaluating sperm motion kinematics using CASA, 4 μl each of sperm suspension was loaded into two 20-μm Microcell chambers (Conception Technologies) that was placed onto a counting chamber at 37° C. At least 5-8 fields per chamber were scanned for analysis using a Hamilton Thorne Integrated Visual Optical System (IVOS), version 10 instrument (Hamilton Thorne Research Inc., Danvers, Mass.). Each field was recorded for 30 seconds. […] The performance of the analyzer was periodically checked using the play-back function. The attributes of sperm kinematic parameters evaluated included numbers of motile (MOT) and progressively (PRG) motile sperm; curvilinear velocity (VCL; a measure of the total distance traveled by a given sperm during the acquisition divided by the time elapsed); average path velocity (VAP; the spatially averaged path that eliminates the wobble of the sperm head), straight line velocity (VSL; the straight-line distance from beginning to end of track divided by time taken), beat cross frequency (BCF, frequency of sperm head crossing sperm average path), the amplitude of lateral head displacement (ALH; the mean width of sperm head oscillation) and the derivatives, straightness ([…]); linearity (LIN=100×VSL/VCL; departure of sperm track from a straight line). Data from each individual cell track were recorded and analyzed. At least 200 motile sperm were analyzed for each aliquot sampled.

The next assay has as its system HIV-1. As to the kind of experiment: Anti-HIV-1 activity, p24 antigen assay in infected PBMC (Example 1). Type of assay: cell-based. The conditions noted are these: for IC50: read-out: IC50, HIV-1 replication (p24 antigen). How it is done: Subsequently, cells were cultured in 96-well microtiter plates (100 μl/well; 2×10^6/ml, triplicate wells) in the presence and absence of various concentrations (0.00 μM to 100 μM) of drugs for 7 days. Aliquots of culture supernatants were removed from the wells on the 7th day after infection for p24 antigen enzyme immunoassay as an indication of viral replication. Erice et al. Antimicrob. Agents and Chemother. […] Agents and Chemother. […] Percent inhibition of virus replication was calculated by comparing the p24 antigen values from the test drug-treated infected cells with p24 antigen values from untreated infected cells. […] Cell viability was quantified by a colorimetric […] assay. F. M. Uckun et al., Antimicrob. Agents and Chemother.

Where [1] appears, read: 3 hours incubation at 37° C., CASA.

Read-outs that look alike come from different tables or passages of the source.

As for “5-Bromo-6-methoxy-5,6-dihydro-3′-azidothymidine 5′-[Phenyl methoxyalaninyl phosphate] [WHI-04]”, the “spermicidal activity, in words” value with human sperm (compared with related derivatives) is on record as “improved spermicidal activity over WHI-01”.

As for “5-Bromo-6-methoxy-5,6-dihydro-3′-azidothymidine-5′-[(p-Fluorophenyl methoxyalaninyl phosphate] [WHI-06]”, the EC50 in the assay with human sperm (setting [1]) turned out to be 15 µM.

As for “5-bromo-6-methoxy-5,6-dihydro-3 ′-azidothymidine-5 ′-(p-methoxyphenyl) methoxyalaninyl phosphate [WHI-05]”, the IC50 with HIV-1 (human peripheral blood mononuclear cells, 7 days) was determined as 0.05 µM. Moreover, the EC50 in the assay with human sperm (setting [1]) was 29 µM.

Consider `CCCCCCCCCc1ccc(OCCOCCOCCOCCOCCOCCOCCOCCOCCO)cc1` [Compound N-9, nonoxynol-9, reference compound], for which, in the assay with HIV-1 (Human immunodeficiency virus 1, PBMC, 168 h, human peripheral blood mononuclear cells, 7 days), the IC50 came out at 2.19 µM. Moreover, the EC50 in the assay on human sperm (Homo sapiens, Sperm, 3 hours incubation at 37° C., CASA) is 81 µM.

Regarding `COC(=O)C(C)NP(=O)(OCC1OC(N2C(=O)NC(=O)C(C)(Br)C2OC)CC1N=[N+]=[N-])Oc1ccc(Br)cc1` (stereo not drawn) [WHI-07, 5-Bromo-6-methoxy-5,6-dihydro-3′-azidothymidine-5′-(p-Bromophenyl Methoxyalaninyl Phosphate)], the IC50 with HIV-1 (Human immunodeficiency virus 1, PBMC, 168 h) was 0.005 µM. Further, the “anti-HIV potency relative to N-9” value in the assay with HIV-1 (ratio of IC50 values) came to 439 fold. For the same compound, the EC50 in the assay on human sperm (Homo sapiens, Sperm, 3 h) was 6 µM.
